≈ marks a conversion by molar mass, not a printed value. Calls of active or inactive are those of the source. The calls are words filed in the database; no cut-off is given here.
What was measured:
Erythrocyte = test: Hemolytic activity against human RBC after 1 hr; format: ADME, cell-based
Escherichia coli [1] = test: Antimicrobial activity against Escherichia coli K88 after 24 hrs by NCCLS-protocol based assay; format: functional; settings: K88, 24 h
Escherichia coli [2] = test: Induction of cytoplasmic membrane depolarization in Escherichia coli ATCC 25922 at 2 uM up to 5000 secs by DiSC3-5 dye-based fluorescence spectrophotometric method; format: functional, organism-based
Escherichia coli [3] = test: Bactericidal activity against Escherichia coli ATCC 25922 incubated for 4 hrs followed by culture spread on agar plates and cultured overnight in presence of 0.25 mg/ml chymotrypsin; format: functional; settings: ATCC 25922, 4 h, read-out: MBC>99.9
Klebsiella pneumoniae [4] = test: Bactericidal activity against Klebsiella pneumoniae incubated for 4 hrs followed by culture spread on agar plates and cultured overnight; format: functional; settings: read-out: MBC>99.9
Escherichia coli [5] = test: Bactericidal activity against Escherichia coli ATCC 25922 incubated for 4 hrs followed by culture spread on agar plates and cultured overnight in presence of MgCl2; format: functional; settings: ATCC 25922, 4 h, read-out: MBC>99.9
Escherichia coli [6] = test: Antimicrobial activity against Escherichia coli 078 after 24 hrs by NCCLS-protocol based assay; format: functional; settings: Escherichia coli, 078, 24 h
Escherichia coli [7] = test: Bactericidal activity against Escherichia coli ATCC 25922 incubated for 4 hrs followed by culture spread on agar plates and cultured overnight in presence of 0.5 mg/ml chymotrypsin; format: functional; settings: ATCC 25922, 4 h, read-out: MBC>99.9
Salmonella typhimurium [8] = test: Antimicrobial activity against Salmonella typhimurium ATCC 14028 after 24 hrs by NCCLS-protocol based assay; format: functional, Salmonella enterica subsp. enterica serovar Typhimurium; settings: Salmonella enterica, ATCC 14028, 24 h
Escherichia coli [9] = test: Antimicrobial activity against Escherichia coli K99 after 24 hrs by NCCLS-protocol based assay; format: functional; settings: K99, 24 h
Escherichia coli [10] = test: Bactericidal activity against Escherichia coli ATCC 25922 incubated for 4 hrs followed by culture spread on agar plates and cultured overnight in presence of FeCl3; format: functional; settings: ATCC 25922, 4 h, read-out: MBC>99.9
Escherichia coli [11] = test: Bactericidal activity against Escherichia coli K99 incubated for 4 hrs followed by culture spread on agar plates and cultured overnight; format: functional; settings: K99, 4 h, read-out: MBC>99.9
Escherichia coli [12] = test: Induction of cytoplasmic membrane depolarization in Escherichia coli ATCC 25922 assessed as induction cytoplasmic ONPG release at 2 to 16 uM up to 120 mins by DiSC3-5 dye-based fluorescence spectrophotometric method; format: functional, organism-based
Klebsiella pneumoniae [13] = test: Antimicrobial activity against Klebsiella pneumoniae after 24 hrs by NCCLS-protocol based assay; format: functional
Pseudomonas aeruginosa [14] = test: Bactericidal activity against Pseudomonas aeruginosa PAO1 incubated for 4 hrs followed by culture spread on agar plates and cultured overnight; format: functional; settings: PAO1, 4 h, read-out: MBC>99.9
[15] = Selectivity ratio of HC10 for human RBC to geometric mean of the peptide MBC for bacteria
Escherichia coli [16] = test: Bactericidal activity against Escherichia coli ATCC 25922 incubated for 4 hrs followed by culture spread on agar plates and cultured overnight in presence of 1 mg/ml trypsin; format: functional; settings: ATCC 25922, 4 h, read-out: MBC>99.9
Escherichia coli [17] = test: Bactericidal activity against Escherichia coli ATCC 25922 incubated for 4 hrs followed by culture spread on agar plates and cultured overnight in presence of NH4Cl; format: functional; settings: ATCC 25922, 4 h, read-out: MBC>99.9
Escherichia coli [18] = test: Bactericidal activity against Escherichia coli ATCC 25922 incubated for 4 hrs followed by culture spread on agar plates and cultured overnight in presence of 4 mg/ml trypsin; format: functional; settings: ATCC 25922, 4 h, read-out: MBC>99.9
Escherichia coli [19] = test: Bactericidal activity against Escherichia coli ATCC 25922 incubated for 4 hrs followed by culture spread on agar plates and cultured overnight in presence of NaCl; format: functional; settings: ATCC 25922, 4 h, read-out: MBC>99.9
Escherichia coli [20] = test: Bactericidal activity against Escherichia coli ATCC 25922 incubated for 4 hrs followed by culture spread on agar plates and cultured overnight in presence of 25% serum albumin; format: functional; settings: ATCC 25922, 4 h, read-out: MBC>99.9
Escherichia coli [21] = test: Bactericidal activity against Escherichia coli 078 incubated for 4 hrs followed by culture spread on agar plates and cultured overnight; format: functional; settings: Escherichia coli, 078, 4 h; read-out: MBC>99.9
Escherichia coli [22] = test: Bactericidal activity against Escherichia coli ATCC 25922 incubated for 4 hrs followed by culture spread on agar plates and cultured overnight in presence of 2 mg/ml chymotrypsin; format: functional; settings: ATCC 25922, 4 h, read-out: MBC>99.9
Escherichia coli [23] = test: Bactericidal activity against Escherichia coli ATCC 25922 incubated for 4 hrs followed by culture spread on agar plates and cultured overnight in presence of ZnCl2; format: functional; settings: ATCC 25922, 4 h, read-out: MBC>99.9
Pseudomonas aeruginosa [24] = test: Bactericidal activity against Pseudomonas aeruginosa CICC 21625 clinical isolates incubated for 4 hrs followed by culture spread on agar plates and cultured overnight; format: functional; settings: CICC 21625, 4 h, read-out: MBC>99.9
Acinetobacter baumannii = test: Antimicrobial activity against Acinetobacter baumannii after 24 hrs by NCCLS-protocol based assay; format: functional
Salmonella typhimurium [25] = test: Bactericidal activity against Salmonella typhimurium C7731 incubated for 4 hrs followed by culture spread on agar plates and cultured overnight; format: functional, Salmonella enterica subsp. enterica serovar Typhimurium; settings: Salmonella enterica, C7731, 4 h; read-out: MBC>99.9
Escherichia coli [26] = test: Bactericidal activity against Escherichia coli ATCC 25922 incubated for 4 hrs followed by culture spread on agar plates and cultured overnight in presence of 50% serum albumin; format: functional; settings: ATCC 25922, 4 h, read-out: MBC>99.9
Escherichia coli [27] = test: Bactericidal activity against Escherichia coli ATCC 25922 incubated for 4 hrs followed by culture spread on agar plates and cultured overnight in presence of 12.5% serum albumin; format: functional; settings: ATCC 25922, 4 h, read-out: MBC>99.9
Escherichia coli [28] = test: Bactericidal activity against Escherichia coli ATCC 25922 incubated for 4 hrs followed by culture spread on agar plates and cultured overnight in presence of 0.125 to 4 mg/ml proteinase K; format: functional, organism-based
Chymotrypsin = Chymotrypsin (Homo sapiens, UniProt Q99895+P17538+P40313+Q6GPI1); test: Stability of the compound assessed as chymotrypsin (unknown origin)-mediated compound hydrolysis after 8 hrs by SDS-PAGE analysis; format: ADME, protein assay
[29] = Stability of the compound assessed as Tritirachium album proteinase K-mediated compound hydrolysis by measuring compound helicity by CD spectroscopy; format: ADME; settings: parengyodontium album
Trypsin = Trypsin (Homo sapiens, UniProt P07477+P07478+P35030); test: Stability of the compound assessed as trypsin (unknown origin)-mediated compound hydrolysis after 8 hrs by SDS-PAGE analysis; format: ADME, protein assay
[30] = Stability of the compound assessed as Tritirachium album proteinase K-mediated compound hydrolysis after 8 hrs by SDS-PAGE analysis; format: ADME; settings: parengyodontium album

Row | Molecule | HC10 (Erythrocyte) [µM] | MIC95 (Escherichia coli [1]) [µM] | MBC (Escherichia coli [3]) [µM] | MBC (Klebsiella pneumoniae [4]) [µM] | MBC (Escherichia coli [5]) [µM] | MIC95 (Escherichia coli [6]) [µM] | MBC (Escherichia coli [7]) [µM] | MIC95 (Salmonella typhimurium [8]) [µM] | MIC95 (Escherichia coli [9]) [µM] | MBC (Escherichia coli [10]) [µM] | MBC (Escherichia coli [11]) [µM] | MIC95 (Klebsiella pneumoniae [13]) [µM] | MBC (Pseudomonas aeruginosa [14]) [µM] | Ratio [15] | MBC (Escherichia coli [16]) [µM] | MBC (Escherichia coli [17]) [µM] | MBC (Escherichia coli [18]) [µM] | MBC (Escherichia coli [19]) [µM] | MBC (Escherichia coli [20]) [µM] | MBC (Escherichia coli [21]) [µM] | further results
1 | CC[C@H](C)[C@H](NC(=O)CN)C(=O)NCC(=O)N[C@@H](C)C(=O)N[C@H](C(=O)N[C@@H](CC(C)C)C(=O)N[C@@H](CCCCN)C(=O)N[C@H](C(=O)N[C@@H](CC(C)C)C(=O)N[C@H](C(=O)N[C@H](C(=O)NCC(=O)N[C@@H](CC(C)C)C(=O)N1CCC[C@H]1C(=O)N[C@@H](C)C(=O)N[C@@H](CC(C)C)C(=O)N[C@H](C(=O)N[C@@H](CO)C(=O)N[C@@H](Cc1c[nH]c2ccccc12)C(=O)N[C@H](C(=O)N[C@@H](CCCCN)C(=O)N[C@@H](CCCNC(=N)N)C(=O)N[C@@H](CCCCN)C(=O)N[C@@H](CCCNC(=N)N)C(=O)N[C@@H](CCC(N)=O)C(=O)N[C@@H](CCC(N)=O)C(N)=O)[C@@H](C)CC)[C@@H](C)CC)[C@@H](C)O)[C@@H](C)O)C(C)C)C(C)C [MELITTIN] | 2 | 1 (≈ 2.85 µg/mL) | 4 | 2 (≈ 5.69 µg/mL) | 4 | 0.5 (≈ 1.42 µg/mL) | > 64 | 1 (≈ 2.85 µg/mL) | 2 (≈ 5.69 µg/mL) | 2 | 2 (≈ 5.69 µg/mL) | 2 (≈ 5.69 µg/mL) | 2 (≈ 5.69 µg/mL) | 0.92 | 16 | 2 | > 64 | 4 | 64 | 1 (≈ 2.85 µg/mL) | Activity (Escherichia coli [2]): Active; Activity (Escherichia coli [12]): Active; MBC (Escherichia coli [22]): > 64 µM; MBC (Escherichia coli [23]): 2 µM; MBC (Pseudomonas aeruginosa [24]): 4 µM (≈ 11.4 µg/mL); MIC95 (Acinetobacter baumannii): 1 µM (≈ 2.85 µg/mL); MBC (Salmonella typhimurium [25]): 2 µM (≈ 5.69 µg/mL); MBC (Escherichia coli [26]): 64 µM; MBC (Escherichia coli [27]): 32 µM
2 | H-IKPIIKPIIKPIIKPIIKPIIKPIIKPI-NH2 | > 128 | 2 | 16 | 64 | 64 | 16 | 16 | 64 | 2 | 64 | 4 | 16 | > 64 | 7.03 | 16 | 16 | 16 | > 128 | > 128 | 16 | Activity (Escherichia coli [28]): Active; Stability (Chymotrypsin): Stable; Stability [29]: Unstable; Stability (Trypsin): Stable; Stability [30]: Stable; MBC (Escherichia coli [22]): 16 µM; MBC (Escherichia coli [23]): 32 µM; MBC (Pseudomonas aeruginosa [24]): > 64 µM; MIC95 (Acinetobacter baumannii): 2 µM; MBC (Salmonella typhimurium [25]): > 64 µM; MBC (Escherichia coli [26]): > 128 µM; MBC (Escherichia coli [27]): > 128 µM
